How the values were obtained:
Abl = Abl (Homo sapiens, UniProt P00519); experiment: kinase screen for inhibition or activation; assay type: biochemical; conditions: 10 μM
Procedure: (§1) A kinase screen was conducted in which Compound 102 (10 μM) was screened against 49 kinases for inhibition or activation. Any kinase that was activated or inhibited by at least 20% was considered to be a significant effect. Of the 49 kinases screened, Lyn kinase was activated by 51%. In a repeat experiment, Lyn kinase activity was increased by 57%.

Akt2 = Akt2 (Homo sapiens, UniProt P31751); experiment: kinase screen for inhibition or activation; assay type: biochemical; conditions: 10 μM
Procedure: as §1

CHK1 = CHK1 (Homo sapiens, UniProt O14757); experiment: kinase screen for inhibition or activation; assay type: biochemical; conditions: 10 μM
Procedure: as §1

CK1d = CK1d (Homo sapiens, UniProt P48730); experiment: kinase screen for inhibition or activation; assay type: biochemical; conditions: 10 μM
Procedure: as §1

CaMK2a = CaMK2a (Homo sapiens, UniProt Q9UQM7); experiment: kinase screen for inhibition or activation; assay type: biochemical; conditions: 10 μM
Chain of CaMK2a (Q9UQM7 whole entry, species assumed): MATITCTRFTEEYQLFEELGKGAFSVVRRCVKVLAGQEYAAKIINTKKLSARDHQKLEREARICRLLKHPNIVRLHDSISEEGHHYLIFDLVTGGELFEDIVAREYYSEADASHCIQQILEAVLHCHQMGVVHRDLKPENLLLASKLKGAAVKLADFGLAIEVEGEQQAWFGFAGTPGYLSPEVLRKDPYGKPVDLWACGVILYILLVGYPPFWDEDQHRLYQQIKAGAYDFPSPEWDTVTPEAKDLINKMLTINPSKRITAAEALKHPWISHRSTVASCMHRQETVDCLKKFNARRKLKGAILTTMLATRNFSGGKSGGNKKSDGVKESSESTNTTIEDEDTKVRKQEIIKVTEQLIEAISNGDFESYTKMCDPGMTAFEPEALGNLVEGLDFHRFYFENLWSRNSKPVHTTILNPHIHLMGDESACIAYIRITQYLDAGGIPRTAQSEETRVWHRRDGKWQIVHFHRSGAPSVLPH
Procedure: as §1

CaMK4 = CaMK4 (Homo sapiens, UniProt Q16566); experiment: kinase screen for inhibition or activation; assay type: biochemical; conditions: 10 μM
Procedure: as §1

EphA2 = EphA2 (Homo sapiens, UniProt P29317); experiment: kinase screen for inhibition or activation; assay type: biochemical; conditions: 10 μM
Procedure: as §1

Fyn = Fyn (Homo sapiens, UniProt P06241); experiment: kinase screen for inhibition or activation; assay type: biochemical; conditions: 10 μM
Procedure: as §1

GSK3b = GSK3b (Homo sapiens, UniProt P49841); experiment: kinase screen for inhibition or activation; assay type: biochemical; conditions: 10 μM
Procedure: as §1

IGF1R = IGF1R (Homo sapiens, UniProt P08069); experiment: kinase screen for inhibition or activation; assay type: biochemical
Chain of IGF1R (P08069 31-1367, species assumed): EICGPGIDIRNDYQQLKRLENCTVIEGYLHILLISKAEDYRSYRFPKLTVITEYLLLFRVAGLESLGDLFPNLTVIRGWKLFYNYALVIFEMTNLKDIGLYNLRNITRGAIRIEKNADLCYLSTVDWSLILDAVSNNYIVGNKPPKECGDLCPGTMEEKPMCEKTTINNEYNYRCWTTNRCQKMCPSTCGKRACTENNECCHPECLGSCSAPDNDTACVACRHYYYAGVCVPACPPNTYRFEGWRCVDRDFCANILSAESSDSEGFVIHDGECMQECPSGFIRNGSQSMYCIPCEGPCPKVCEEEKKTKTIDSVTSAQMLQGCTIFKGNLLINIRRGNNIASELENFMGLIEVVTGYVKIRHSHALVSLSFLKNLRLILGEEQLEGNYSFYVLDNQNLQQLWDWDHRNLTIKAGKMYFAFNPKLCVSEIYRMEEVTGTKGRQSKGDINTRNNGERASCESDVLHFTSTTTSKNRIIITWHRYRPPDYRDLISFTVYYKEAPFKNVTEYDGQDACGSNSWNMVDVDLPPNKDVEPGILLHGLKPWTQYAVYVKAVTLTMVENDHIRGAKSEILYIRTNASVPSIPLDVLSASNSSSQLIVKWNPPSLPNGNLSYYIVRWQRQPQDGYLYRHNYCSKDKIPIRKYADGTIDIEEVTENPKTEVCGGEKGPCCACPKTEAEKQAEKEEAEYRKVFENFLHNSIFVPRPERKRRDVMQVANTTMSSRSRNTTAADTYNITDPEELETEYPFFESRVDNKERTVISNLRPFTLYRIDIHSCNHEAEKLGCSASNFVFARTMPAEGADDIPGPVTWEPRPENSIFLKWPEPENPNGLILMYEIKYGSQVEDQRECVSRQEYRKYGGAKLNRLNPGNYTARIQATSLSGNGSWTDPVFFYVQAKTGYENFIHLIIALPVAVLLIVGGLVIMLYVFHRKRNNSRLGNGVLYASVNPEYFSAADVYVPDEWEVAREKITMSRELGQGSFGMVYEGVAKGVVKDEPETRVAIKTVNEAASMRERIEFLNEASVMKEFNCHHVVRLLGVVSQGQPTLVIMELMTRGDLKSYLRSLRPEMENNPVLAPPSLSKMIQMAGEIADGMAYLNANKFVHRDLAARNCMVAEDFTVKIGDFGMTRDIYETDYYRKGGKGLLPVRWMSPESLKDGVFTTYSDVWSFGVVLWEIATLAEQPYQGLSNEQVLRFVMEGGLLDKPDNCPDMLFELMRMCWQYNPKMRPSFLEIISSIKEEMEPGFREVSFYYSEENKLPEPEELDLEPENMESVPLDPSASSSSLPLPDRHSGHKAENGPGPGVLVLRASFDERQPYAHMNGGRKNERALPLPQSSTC
Procedure: as §1

IRAK4 = IRAK4 (Homo sapiens, UniProt Q9NWZ3); experiment: kinase screen for inhibition or activation; assay type: biochemical; conditions: 10 μM
Procedure: as §1

JNK2 = JNK2 (Homo sapiens, UniProt P45984); experiment: kinase screen for inhibition or activation; assay type: biochemical; conditions: 10 μM
Procedure: as §1

Lck = Lck (Homo sapiens, UniProt P06239); experiment: kinase screen for inhibition or activation; assay type: biochemical; conditions: 10 μM
Chain of Lck (P06239 whole entry, species assumed): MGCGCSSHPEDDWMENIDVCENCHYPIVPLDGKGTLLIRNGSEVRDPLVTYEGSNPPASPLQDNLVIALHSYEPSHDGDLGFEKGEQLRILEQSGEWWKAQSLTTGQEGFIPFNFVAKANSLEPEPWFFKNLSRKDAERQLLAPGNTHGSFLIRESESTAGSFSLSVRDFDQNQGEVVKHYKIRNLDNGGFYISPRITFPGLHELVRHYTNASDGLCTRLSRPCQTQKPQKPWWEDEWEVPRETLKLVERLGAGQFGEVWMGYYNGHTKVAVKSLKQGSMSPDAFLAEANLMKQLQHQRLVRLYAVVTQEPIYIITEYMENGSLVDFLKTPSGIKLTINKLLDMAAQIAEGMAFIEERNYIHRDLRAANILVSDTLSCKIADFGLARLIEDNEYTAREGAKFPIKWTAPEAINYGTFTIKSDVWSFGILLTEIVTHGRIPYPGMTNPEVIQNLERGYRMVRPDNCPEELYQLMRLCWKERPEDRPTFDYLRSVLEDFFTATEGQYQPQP
Procedure: as §1

Lyn [1] = biological target: T1, Lyn (Homo sapiens, UniProt P07948); experiment: kinase screen for inhibition or activation; assay type: biochemical; conditions: 10 μM
T1 sequence (P07948 whole entry): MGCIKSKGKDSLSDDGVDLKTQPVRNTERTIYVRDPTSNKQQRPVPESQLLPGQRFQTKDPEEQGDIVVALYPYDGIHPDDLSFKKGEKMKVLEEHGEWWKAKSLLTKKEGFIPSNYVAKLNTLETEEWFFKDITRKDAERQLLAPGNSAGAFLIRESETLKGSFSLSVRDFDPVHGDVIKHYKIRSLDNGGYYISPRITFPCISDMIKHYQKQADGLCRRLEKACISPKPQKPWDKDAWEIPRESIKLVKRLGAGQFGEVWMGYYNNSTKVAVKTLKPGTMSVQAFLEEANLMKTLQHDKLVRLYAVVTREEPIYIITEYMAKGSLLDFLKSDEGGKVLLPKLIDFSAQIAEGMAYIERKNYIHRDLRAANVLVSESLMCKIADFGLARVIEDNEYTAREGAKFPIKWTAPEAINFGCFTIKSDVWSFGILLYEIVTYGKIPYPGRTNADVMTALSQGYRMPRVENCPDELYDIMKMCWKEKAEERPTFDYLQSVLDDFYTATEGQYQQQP
Procedure: as §1

MAPKAP5 = MAPKAP5 (Homo sapiens, UniProt Q8IW41); experiment: kinase screen for inhibition or activation; assay type: biochemical; conditions: 10 μM
Procedure: as §1

MST2 = MST2 (Homo sapiens, UniProt Q13188); experiment: kinase screen for inhibition or activation; assay type: biochemical; conditions: 10 μM
Procedure: as §1

PKCb2 = PKCb2 (Homo sapiens, UniProt P05771); experiment: kinase screen for inhibition or activation; assay type: biochemical; conditions: 10 μM
Procedure: as §1

SGK1 = SGK1 (Homo sapiens, UniProt O00141); experiment: kinase screen for inhibition or activation; assay type: biochemical; conditions: 10 μM
Chain of SGK1 (O00141 whole entry, species assumed): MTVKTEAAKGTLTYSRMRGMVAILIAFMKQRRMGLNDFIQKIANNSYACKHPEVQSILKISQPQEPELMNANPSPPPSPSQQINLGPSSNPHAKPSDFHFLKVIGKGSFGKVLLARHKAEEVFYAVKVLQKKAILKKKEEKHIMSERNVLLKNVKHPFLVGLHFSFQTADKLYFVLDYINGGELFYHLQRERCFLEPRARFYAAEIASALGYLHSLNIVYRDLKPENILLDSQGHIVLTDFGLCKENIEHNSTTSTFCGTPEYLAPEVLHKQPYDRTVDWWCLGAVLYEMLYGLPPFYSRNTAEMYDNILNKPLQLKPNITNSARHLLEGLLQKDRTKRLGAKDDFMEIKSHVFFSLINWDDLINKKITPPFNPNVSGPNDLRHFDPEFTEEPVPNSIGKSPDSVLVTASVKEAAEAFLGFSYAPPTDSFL
Procedure: as §1

cKit = cKit (Homo sapiens, UniProt P10721); experiment: kinase screen for inhibition or activation; assay type: biochemical; conditions: 10 μM
Chain of cKit (P10721 26-976): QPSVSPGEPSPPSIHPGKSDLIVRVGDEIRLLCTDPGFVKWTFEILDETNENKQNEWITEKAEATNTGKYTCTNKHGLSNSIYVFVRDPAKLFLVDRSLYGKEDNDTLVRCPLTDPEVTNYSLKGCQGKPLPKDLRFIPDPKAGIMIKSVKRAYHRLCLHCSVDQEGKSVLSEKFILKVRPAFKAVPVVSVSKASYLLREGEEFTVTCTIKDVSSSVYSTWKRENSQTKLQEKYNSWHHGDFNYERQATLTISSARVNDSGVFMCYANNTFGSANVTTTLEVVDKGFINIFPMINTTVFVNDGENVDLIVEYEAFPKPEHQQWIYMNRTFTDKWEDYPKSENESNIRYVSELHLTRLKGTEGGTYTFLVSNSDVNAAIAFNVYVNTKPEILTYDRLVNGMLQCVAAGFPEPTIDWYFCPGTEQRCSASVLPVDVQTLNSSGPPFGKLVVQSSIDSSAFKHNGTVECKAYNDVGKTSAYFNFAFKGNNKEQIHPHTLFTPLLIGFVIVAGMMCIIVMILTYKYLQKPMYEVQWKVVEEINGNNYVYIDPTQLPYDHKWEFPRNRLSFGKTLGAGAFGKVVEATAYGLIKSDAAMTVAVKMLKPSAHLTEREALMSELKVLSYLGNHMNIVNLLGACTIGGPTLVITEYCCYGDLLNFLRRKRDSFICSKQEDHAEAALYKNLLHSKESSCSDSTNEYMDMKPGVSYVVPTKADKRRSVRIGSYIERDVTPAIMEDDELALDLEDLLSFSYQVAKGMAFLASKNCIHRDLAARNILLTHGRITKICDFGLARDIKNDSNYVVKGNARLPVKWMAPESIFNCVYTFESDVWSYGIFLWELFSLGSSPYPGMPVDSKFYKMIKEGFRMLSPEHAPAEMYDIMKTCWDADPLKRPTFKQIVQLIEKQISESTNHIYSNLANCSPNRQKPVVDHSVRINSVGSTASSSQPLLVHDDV
Procedure: as §1

cRAF = cRAF (Homo sapiens, UniProt P04049); experiment: kinase screen for inhibition or activation; assay type: biochemical; conditions: 10 μM
Chain of cRAF (P04049 whole entry, species assumed): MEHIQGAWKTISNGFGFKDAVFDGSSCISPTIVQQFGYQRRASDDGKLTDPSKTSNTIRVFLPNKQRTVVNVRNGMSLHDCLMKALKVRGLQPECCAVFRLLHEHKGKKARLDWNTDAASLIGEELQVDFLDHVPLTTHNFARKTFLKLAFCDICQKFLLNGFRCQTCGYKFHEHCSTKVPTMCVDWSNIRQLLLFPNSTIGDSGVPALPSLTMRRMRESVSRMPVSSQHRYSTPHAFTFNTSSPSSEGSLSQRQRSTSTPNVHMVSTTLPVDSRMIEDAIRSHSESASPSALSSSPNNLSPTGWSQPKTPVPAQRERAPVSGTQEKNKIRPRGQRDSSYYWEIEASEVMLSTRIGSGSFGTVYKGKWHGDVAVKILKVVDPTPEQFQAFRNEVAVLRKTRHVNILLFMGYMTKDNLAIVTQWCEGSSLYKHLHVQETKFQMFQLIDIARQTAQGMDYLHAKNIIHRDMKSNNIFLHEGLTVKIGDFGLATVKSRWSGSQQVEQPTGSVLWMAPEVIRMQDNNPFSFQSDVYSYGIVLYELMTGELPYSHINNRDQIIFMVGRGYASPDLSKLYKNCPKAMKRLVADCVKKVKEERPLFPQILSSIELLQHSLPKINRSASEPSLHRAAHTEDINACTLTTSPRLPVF
Procedure: as §1

Lyn [2] = biological target: T1, Lyn; conditions: 100 μM; ATP 0 to 800 μM

Cc1cccc(Oc2cnc(=O)[nH]c2)c1 [Compound 102]
COMPOUND 102 ACTIVITY (% KINASE ACTIVITY) (Abl): −4.04%
COMPOUND 102 ACTIVITY (% KINASE ACTIVITY) (Akt2): −6.83%
COMPOUND 102 ACTIVITY (% KINASE ACTIVITY) (CHK1): 0.87%
COMPOUND 102 ACTIVITY (% KINASE ACTIVITY) (CK1d): −1.5%
COMPOUND 102 ACTIVITY (% KINASE ACTIVITY) (CaMK2a): 0.08%
COMPOUND 102 ACTIVITY (% KINASE ACTIVITY) (CaMK4): 17.35%
COMPOUND 102 ACTIVITY (% KINASE ACTIVITY) (EphA2): 1.03%
COMPOUND 102 ACTIVITY (% KINASE ACTIVITY) (Fyn): −4.64%
COMPOUND 102 ACTIVITY (% KINASE ACTIVITY) (GSK3b): 2.47%
COMPOUND 102 ACTIVITY (% KINASE ACTIVITY) (IGF1R; IGF1R, 10 μM): −20.18%
inhibition at 10 µM (IGF1R; inhibition, read-out: insulin-like growth factor receptor activity inhibited by): 20.1%
COMPOUND 102 ACTIVITY (% KINASE ACTIVITY) (IRAK4): 2.25%
COMPOUND 102 ACTIVITY (% KINASE ACTIVITY) (JNK2): −4.8%
COMPOUND 102 ACTIVITY (% KINASE ACTIVITY) (Lck): 6.28%
COMPOUND 102 ACTIVITY (% KINASE ACTIVITY) (Lyn [1]; Lyn (repeat), repeat experiment, activation): 57%
COMPOUND 102 ACTIVITY (% KINASE ACTIVITY) (Lyn [1]; Lyn (repeat), repeat experiment, activation, listed as COMPOUND 102, 10 µM): 57.11%
COMPOUND 102 ACTIVITY (% KINASE ACTIVITY) (Lyn [1]; Lyn, first screen, activation): 51%
COMPOUND 102 ACTIVITY (% KINASE ACTIVITY) (Lyn [1]; Lyn, first screen, activation, listed as COMPOUND 102, 10 µM): 51.05%
COMPOUND 102 ACTIVITY (% KINASE ACTIVITY) (Lyn [1]; Lyn, third Lyn line of the table): 57%
COMPOUND 102 ACTIVITY (% KINASE ACTIVITY) (MAPKAP5): 0.79%
COMPOUND 102 ACTIVITY (% KINASE ACTIVITY) (MST2): 4.59%
COMPOUND 102 ACTIVITY (% KINASE ACTIVITY) (PKCb2): −1.12%
COMPOUND 102 ACTIVITY (% KINASE ACTIVITY) (SGK1): −19.24%
COMPOUND 102 ACTIVITY (% KINASE ACTIVITY) (cKit): 18.79%
COMPOUND 102 ACTIVITY (% KINASE ACTIVITY) (cRAF): 5.08%
effect on the Km for ATP (Lyn [2]): did not alter the Km for ATP
increase of the Vmax of Lyn kinase (Lyn [2]): 3 fold
